This note sets out measurements from ChEMBL document CHEMBL1201862, “PubChem BioAssay data set” (2004).

A short description of data set [1]: cytotoxicity toward NIH3T3 fibroblasts, dose response, counter-screen, cell-based, ATP luminescence, mouse fibroblasts (AID 2010).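 Further: cells exposed to compound for about 90 hours before reading.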 In kind it is functional. For orientation: Counterscreens check selectivity or assay interference.
Data set [2] deals with DNA dC->dU-editing enzyme APOBEC-3A (Homo sapiens, UniProt P31941). Kind of data set: Dose Response confirmation of small molecule APOBEC3A DNA Deaminase Inhibitors via a fluorescence-based single-stranded DNA deaminase assay. [Related pubchem assays (depositor defined):AID493011, AID493024]. Format: functional.
For data set [3], the target named is DNA dC->dU-editing enzyme APOBEC-3G (Homo sapiens, UniProt Q9HC16). In kind it is functional.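 Further: Dose-response counterscreen measuring inhibition of APOBEC3G DNA deaminase activity, run while confirming APOBEC3A inhibitors.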
The nature of data set [4]: inhibitors of intracellular T. cruzi replication, confirmation, NIH3T3 host cells, beta-gal luminescence (AID 2044).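 Further: intracellular parasites grown in NIH/3T3 mouse fibroblasts as host cells; luminescent beta-galactosidase reporter signal from transgenic T. cruzi replicating inside host cells; inhibitors lower the luminescence signal.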 Format: functional, cell-based.
Data set [5] can be described thus: Intein inhibitors as potential Tuberculosis drugs, a cytotoxicity screen. [Related pubchem assays (depositor defined):AID2221, AID2223, AID434968, AID435010, AID449749, AID449750, AID489010]. In kind it is functional.
The next data set concerns INS1. Kind of data set: beta cell apoptosis inhibitors, cytokine rescue, dose response, luminescence, retest (AID 449756).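 Further: cell death triggered by IL-1 beta plus TNF-alpha plus IFN-gamma mixture; protective hits raise ATP signal compared with cytokine alone wells.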 In kind it is functional, cell-based. The note with it: Rattus norvegicus.
A further data set deals with T1, Protein RecA (Mycobacterium tuberculosis, UniProt P9WHJ3).
T1 sequence (P9WHJ3 whole entry): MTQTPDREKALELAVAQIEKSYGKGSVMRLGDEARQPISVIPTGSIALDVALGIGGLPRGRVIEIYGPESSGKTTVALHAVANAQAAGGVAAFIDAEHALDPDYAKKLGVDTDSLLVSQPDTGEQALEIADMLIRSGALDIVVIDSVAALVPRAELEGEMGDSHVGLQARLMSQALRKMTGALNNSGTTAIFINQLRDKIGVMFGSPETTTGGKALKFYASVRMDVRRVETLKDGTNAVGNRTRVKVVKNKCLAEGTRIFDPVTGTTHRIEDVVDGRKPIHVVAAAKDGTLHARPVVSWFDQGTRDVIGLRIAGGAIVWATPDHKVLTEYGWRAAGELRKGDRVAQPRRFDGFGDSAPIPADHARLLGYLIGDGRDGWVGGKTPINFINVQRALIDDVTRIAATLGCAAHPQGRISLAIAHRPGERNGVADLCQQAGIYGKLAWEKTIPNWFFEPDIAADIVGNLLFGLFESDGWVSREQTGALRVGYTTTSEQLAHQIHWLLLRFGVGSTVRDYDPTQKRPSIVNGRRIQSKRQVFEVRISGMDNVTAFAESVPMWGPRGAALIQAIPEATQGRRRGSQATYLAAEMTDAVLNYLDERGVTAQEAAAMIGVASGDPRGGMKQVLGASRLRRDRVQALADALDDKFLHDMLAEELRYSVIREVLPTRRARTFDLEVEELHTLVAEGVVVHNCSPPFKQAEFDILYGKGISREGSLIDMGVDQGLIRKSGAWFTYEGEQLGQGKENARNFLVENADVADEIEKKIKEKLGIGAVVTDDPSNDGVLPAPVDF
Nature of the data set: Fluorescence Cell-Free Homogeneous Dose Retest to Identify Inhibitors of RecA-Intein Splicing Activity. [Related pubchem assays (depositor defined):AID2097, AID2223, AID489010, AID492950]. Format: functional.

The target in data set [6] is T2, Replicative DNA helicase DnaB (Mycobacterium tuberculosis, UniProt P9WMR3).
T2 sequence (P9WMR3 whole entry): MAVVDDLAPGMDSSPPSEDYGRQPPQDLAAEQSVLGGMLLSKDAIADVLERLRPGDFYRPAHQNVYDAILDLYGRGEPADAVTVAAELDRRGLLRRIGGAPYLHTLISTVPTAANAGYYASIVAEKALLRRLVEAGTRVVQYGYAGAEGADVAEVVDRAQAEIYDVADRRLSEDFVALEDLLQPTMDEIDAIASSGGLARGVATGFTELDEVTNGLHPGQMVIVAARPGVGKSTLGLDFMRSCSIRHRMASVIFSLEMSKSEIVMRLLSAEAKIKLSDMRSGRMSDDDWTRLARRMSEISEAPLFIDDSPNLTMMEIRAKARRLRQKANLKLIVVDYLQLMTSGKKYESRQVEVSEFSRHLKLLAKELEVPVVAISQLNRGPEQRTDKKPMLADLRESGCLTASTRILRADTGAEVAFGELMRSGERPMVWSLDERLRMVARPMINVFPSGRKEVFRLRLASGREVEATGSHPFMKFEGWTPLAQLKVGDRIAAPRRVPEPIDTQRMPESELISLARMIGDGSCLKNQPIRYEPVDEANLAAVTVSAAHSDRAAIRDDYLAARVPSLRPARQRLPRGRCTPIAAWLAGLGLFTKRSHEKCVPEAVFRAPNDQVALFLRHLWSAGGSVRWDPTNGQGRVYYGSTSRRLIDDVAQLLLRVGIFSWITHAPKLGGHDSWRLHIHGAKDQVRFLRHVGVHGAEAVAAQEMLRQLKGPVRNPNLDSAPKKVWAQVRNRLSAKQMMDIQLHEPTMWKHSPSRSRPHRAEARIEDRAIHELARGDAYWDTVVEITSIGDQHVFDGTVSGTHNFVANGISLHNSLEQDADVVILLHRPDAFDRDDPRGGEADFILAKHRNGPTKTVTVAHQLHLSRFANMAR
Nature of the data set: DnaB intein splicing inhibitors, dose response, biochemical, cell-free fluorescence (AID 449749). Format: functional.

Data set [7] is described as follows: HepG2 cell cytotoxicity, dose response, cytotoxicity control for Shn3 inhibitor project, CellTiter-Glo, cherry-picked (AID 624134). In kind it is functional, cell-based. A general note: In ATP-based viability assays light output follows the ATP content of the culture.
Data set [8] can be described thus: Shn3 3'UTR reporter inhibitors, dose response, cell-based, Clone20 osteoblasts, firefly luciferase, cherry-picked (AID 624132).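 Further: firefly luciferase luminescence from reporter carrying the Shn3 3'UTR in osteoblasts.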 Format: functional.
A further data set concerns the target Cytochrome P450 2C9 (Homo sapiens, UniProt P11712).
Data set [9] addresses Heat shock protein HSP 90-alpha (Homo sapiens, UniProt P07900). In kind it is functional, organism-based.
Data set [10] can be described thus: control 3'UTR Renilla luciferase suppression, dose response, counter-screen for Shn3 inhibitor project, cell-based, Clone20-Shn3RL, cherry-picked (AID 624133). In kind it is functional.
The nature of data set [11]: C. albicans growth with fluconazole, confirmation, fluorescence, retest (AID 2467). In kind it is functional, cell-based.
Data set [12] can be described thus: NIH-3T3 fibroblast cytotoxicity, dose response, cytotoxicity control, cell-based, fluorescence, Alamar Blue, secondary assay (AID 2327).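 Further: NIH-3T3 mouse fibroblasts cultured with fluconazole at 8 µg/mL.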 Format: functional.

Molecules are shown by their SMILES. Activity calls are given as the source filed them.
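Wherever CC50 is given: cells exposed to compound for 72 hours before luminescence readout.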

Chain of DNA dC->dU-editing enzyme APOBEC-3A (P31941 whole entry): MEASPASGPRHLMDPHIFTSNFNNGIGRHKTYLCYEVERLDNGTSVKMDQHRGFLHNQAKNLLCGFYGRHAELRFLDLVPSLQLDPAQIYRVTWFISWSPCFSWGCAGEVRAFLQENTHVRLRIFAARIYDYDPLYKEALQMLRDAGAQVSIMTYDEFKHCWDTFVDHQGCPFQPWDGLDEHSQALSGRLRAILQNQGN
Chain of DNA dC->dU-editing enzyme APOBEC-3G (Q9HC16 whole entry): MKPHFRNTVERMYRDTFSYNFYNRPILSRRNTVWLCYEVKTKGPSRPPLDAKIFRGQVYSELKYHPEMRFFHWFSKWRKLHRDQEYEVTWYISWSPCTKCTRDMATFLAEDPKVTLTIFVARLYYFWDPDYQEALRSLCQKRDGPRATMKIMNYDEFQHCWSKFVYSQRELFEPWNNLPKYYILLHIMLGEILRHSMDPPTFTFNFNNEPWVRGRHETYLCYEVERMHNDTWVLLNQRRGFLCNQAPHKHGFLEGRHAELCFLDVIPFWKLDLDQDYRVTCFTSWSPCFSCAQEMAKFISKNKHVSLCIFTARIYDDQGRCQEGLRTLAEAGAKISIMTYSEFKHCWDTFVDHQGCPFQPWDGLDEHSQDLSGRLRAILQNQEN
Chain of Cytochrome P450 2C9 (P11712 whole entry): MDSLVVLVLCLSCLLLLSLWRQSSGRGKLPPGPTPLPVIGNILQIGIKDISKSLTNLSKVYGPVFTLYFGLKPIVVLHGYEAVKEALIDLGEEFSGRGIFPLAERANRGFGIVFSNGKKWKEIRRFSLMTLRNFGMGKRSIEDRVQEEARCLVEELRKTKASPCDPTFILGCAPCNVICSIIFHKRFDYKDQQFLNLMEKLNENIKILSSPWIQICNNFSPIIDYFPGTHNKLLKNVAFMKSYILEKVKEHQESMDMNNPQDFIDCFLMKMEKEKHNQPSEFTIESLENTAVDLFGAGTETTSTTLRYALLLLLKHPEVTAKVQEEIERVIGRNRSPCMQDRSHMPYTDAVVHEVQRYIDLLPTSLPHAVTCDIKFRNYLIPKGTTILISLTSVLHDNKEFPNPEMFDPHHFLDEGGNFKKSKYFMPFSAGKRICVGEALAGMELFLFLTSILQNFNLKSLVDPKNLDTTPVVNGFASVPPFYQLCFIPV

Consider `Cc1ccc(OCC(=O)Nc2ccc(S(=O)(=O)N(C)C3CCN(C)CC3)cc2)c(C)c1`, for which the 50% effective concentration (EC50) (as a rule, the concentration at which the effect is half-maximal) in data set [1] is > 60 µM (not active); in [4], 0.32 µM (active). The IC50 – broadly, the concentration that gives 50% inhibition – is 3.31 µM (active) in [2] and 6.95 µM (active) in data set [3].

Take `Cc1cccc(Cn2nnc3c2C(=O)c2ccccc2C3=O)c1`: the CC50 – broadly, the concentration that lowers cell viability or growth by half – in data set [5] is 11.7 µM (active). For the same molecule, the EC50 in [1] was > 30 µM (not active); on Protein RecA, 0.446 µM (active); in data set [4] it was 2.58 µM (active). Further, the half-maximal activity concentration (AC50) (in general, the midpoint of the concentration-response curve, whichever way the signal moves) with INS1 is 5.21 µM (active); in data set [6] it was 4.2 µM (active).

Turning to `CCn1c(C=CN(C(C)=O)c2ccccc2)[n+](CC)c2cc(Cl)ccc21`, the IC50 in data set [2] is 2.23 µM (active); in data set [3] it was 4.45 µM (active).

With `O=C(OCn1ncc(Cl)c(Cl)c1=O)c1cccc(C(F)(F)F)c1`, in data set [5], the CC50 is 8.16 µM (active). Also, the AC50 in data set [7] was 49.7 µM (active); in data set [8], 3.74 µM (active); on Cytochrome P450 2C9 it was “inconclusive”; in data set [9] it was 4.11 µM (active); in [10] it was 7.88 µM (active); in data set [6], 1.44 µM (active). In addition, the half-maximal effective concentration (EC50) is 0.19 µM (active) at Protein RecA, 0.781 µM (active) in data set [11] and 5.31 µM (inconclusive) in data set [12].
